Consider two compounds from patent US10035791B2, “Bicyclic compound and pharmaceutical composition thereof for treating stroke and use thereof” (China Medical University, priority 2016, dated 2018).

Structures are written as SMILES. Entries after “also recorded” stand apart in the source; their conditions may differ.

Experiment [1] concerns primary cortical cultures (PCCs). Briefly: Lactate dehydrogenase (LDH) release rate analysis, H2O2-treated PCCs. It is filed as cell-based, C57BL/6 mice. The method, then: H2O2 can cause an oxidative damage to cells and a destruction of the cell membrane, and consequently the LDH is released into medium. For that reason, the lower rate of the LDH released into the culture medium is represented the fewer damaged cells and better cell protection effect of sample.
(§1) Test cells are primary cortical cultures (PCCs) in this example. The PCCs are prepared from cerebral cortexes of gestation day 17 embryos from C57BL/6 mice as described previously (Cell Death Differ 2008; 15: 143-151). The PCCs are maintained under serum-free conditions in neurobasal medium (Invitrogen), supplemented with B-27 supplement (2%; invitrogen), glutamine (0.5 mM; Sigma Aldrich), glutamate ([…]; Sigma Aldrich), penicillin (100 U/ml) and streptomycin ([…]; Invitrogen). At 4 days in vitro, half of the medium is removed and replaced with fresh medium without glutamate. The cultures are maintained in a humidified incubator at 37° C. with 5% CO2. At 7 days in vitro, the PCCs are used for experimentation.
The PCCs are seeded in a 24-well plate and are allowed to stand for 20 minutes. […] The PCCs are maintained at 37° C. in a humidified atmosphere of 5% CO2 for 24 hours. After incubation, the culture medium is collected and washed twice with phosphate buffered saline (PBS), and then are analyzed the LDH activity in the culture medium by using LDH Cytotoxicity Detection Kit (TaKaRa Bio Laboratories, Japan) to calculate the percentage cytotoxicity, which is represented the situation of cells damage, of the PCCs. The lower percentage cytotoxicity presents the lower LDH activity detected and less severe of cells damages, which indicates the better cell protection effect of the sample. The LDH activity is measured by a colorimetry. After a reaction between enzyme and particular substrate, an absorbance of the reaction solution and the LDH activity is linearly correlated. The LDH activity (U/10^−3 L) is calculated by a reduced optical density slope at a wavelength of 340 nm within three minutes. A lactate dehydrogenase activity unit is defined as a catalytic consumption of […] NADH per minute.

Experiment [2] relates to ischemic rats. Kind of experiment: Locomotor activity test. It counts as in vivo, Sprague-Dawley (SD) rats. The conditions noted are these: 1 mg/kg, vs control group, FIGS. 19B to 19D. The source says: The ischemic rats are induced by an ischemia-reperfusion model to simulate transient focal cerebral ischemia in rats. Test animals are male Sprague-Dawley (SD) rats weighing 250-300 g. The rats are anesthetized with chloral hydrate (0.4 g/kg IP) and subjected to cerebral ischemia. The ischemia-reperfusion model is induced by ligations of bilateral common carotid arteries (CCAs) and a right middle cerebral artery (MCA). The bilateral CCAs are clamped with non-traumatic arterial clips, and the right MCA is ligated with an 10-0 nylon suture. After 90 minutes ischemia, the suture on the MCA and the arterial clips on CCAs are removed to allow reperfusion. Core body temperature is monitored with a thermistor probe (Hewlett-Packard Model 21090A probe, Hewlett-Packard Company, Andover, Mass.), and maintained at 37° C. with a heating pad during anesthesia. […]
The locomotor activity test is measured for about 2 hours using VersaMax Animal Activity Monitoring System (Accuscan Instruments), which contains 16 horizontal infrared sensors and 8 vertical infrared sensors. The vertical sensors are situated 10 cm above the chamber floor and the locomotor activity is quantified by a number of a beam broken by the rat's movement in the chamber. Three vertical-movement parameters are measured: (i) vertical activity (ii) vertical time (iii) number of vertical movements by the manufacturer's instruction.

The test system of experiment [3] is Bmi-1. Briefly: Bmi-1 expressions in the PCCs with hypoxic treatment, Western blot. It counts as cell-based, C57BL/6 mice. The method, then: as §1
The relationship between the HIF-1α activation and the Bmi-1 expressions is further analyzed by the Western blot analysis in this example. […] One group of the PCCs is transfected with LV-Bmi-1 to transient express the Bmi-1. Another group of the PCCs is treated with 1 μM of 2-ME2 for 16 hours and then transfected with the LV-Bmi-1. The other group of the PCCs is transfected with LV-GFP as the control group. In FIG. 6B, the PCCs transfected with the LV-Bmi-1 overexpress the Bmi-1. However, the overexpressions of the Bmi-1 are not affected by the pretreatment of the PCCs with 2-ME2. […]
(In general: Immunoblotting shows a protein as a band on a membrane.)

In experiment [4] the test system is Bmi-1. Briefly: Bmi-1 expressions of the brains of 2-ME2 treated ischemic rats, immunohistochemistry and Western blot. It is filed as in vivo, Sprague-Dawley (SD) rats. The conditions noted are these: 2-ME2 50, 100 or 150 mg/kg intraperitoneal, dose-dependent manner, FIGS. 5B, 5C. An excerpt:
The ischemic rats are induced by an ischemia-reperfusion model to simulate transient focal cerebral ischemia in rats. Test animals are male Sprague-Dawley (SD) rats weighing 250-300 g. The rats are anesthetized with chloral hydrate (0.4 g/kg IP) and subjected to cerebral ischemia. The ischemia-reperfusion model is induced by ligations of bilateral common carotid arteries (CCAs) and a right middle cerebral artery (MCA). The bilateral CCAs are clamped with non-traumatic arterial clips, and the right MCA is ligated with an 10-0 nylon suture. After 90 minutes ischemia, the suture on the MCA and the arterial clips on CCAs are removed to allow reperfusion. Core body temperature is monitored with a thermistor probe (Hewlett-Packard Model 21090A probe, Hewlett-Packard Company, Andover, Mass.), and maintained at 37° C. with a heating pad during anesthesia. After recovery from anesthesia, rat body temperature is maintained at 37° C. with a heat lamp.
2-ME2 (Sigma Aldrich, USA) is dissolved in DMSO to obtain a 10 mmol/L solution. For in vivo experiments, the whole procedure is performed as previously described (Clin Cancer Res 2004, 10: 8665-8673). […]

Turning to `COC(=O)C1=CO[C@@H](O)[C@@H]2C(COC(=O)[C@@H](N)Cc3ccccc3)=CC[C@H]12` [Compound 1], the “LDH release rate of the PCCs treated with H2O2” value in experiment [1] (compound 0.1 μM, FIG. 1G) is listed as 30%; in experiment [1] (compound 100 μM, 10^-4 mol/L H2O2, 24 hours, FIG. 1F), “lower LDH release rate; also recorded: reduces most LDH release rate”. The “concentration at which the LDH release rate of the PCCs is reduced most” value in experiment [1] (tested 0.1, 1, 10 and 100 μM, FIG. 1G) is 100 µM. Also, in experiment [2], the “locomotor activity (vertical activity, vertical time, number of vertical movements)” value is “significant improvement”.
For the compound `COc1cc2c(cc1O)CC[C@@H]1[C@@H]2CC[C@]2(C)[C@@H](O)CC[C@@H]12` [Compound 2-ME2, 2-Methoxyestradiol, reference compound], in experiment [3] (1 μM 2-ME2 for 16 hours before transfection, FIG. 6B), the “overexpressions of the Bmi-1 in PCCs transfected with the LV-Bmi-1” value is given as “not affected”. Further, in experiment [3] (1 μM 2-ME2 for 16 hours, hypoxic treatment, FIG. 6C), the “Bmi-1 expressions of the PCCs” value is reported as “reduced”. Also, in experiment [4], the “upregulated Bmi-1 immunoreactivity and protein expressions after the cerebral ischemia” value was “suppressed”.
